The target in one data set is T1, COX-2 (Mus musculus, UniProt Q05769).
T1 construct: endogenous in cells; host or cells: thioglycollate-elicited peritoneal macrophages of male C57BL-6J mice, stimulated with LPS
T1 sequence (Q05769 18-604): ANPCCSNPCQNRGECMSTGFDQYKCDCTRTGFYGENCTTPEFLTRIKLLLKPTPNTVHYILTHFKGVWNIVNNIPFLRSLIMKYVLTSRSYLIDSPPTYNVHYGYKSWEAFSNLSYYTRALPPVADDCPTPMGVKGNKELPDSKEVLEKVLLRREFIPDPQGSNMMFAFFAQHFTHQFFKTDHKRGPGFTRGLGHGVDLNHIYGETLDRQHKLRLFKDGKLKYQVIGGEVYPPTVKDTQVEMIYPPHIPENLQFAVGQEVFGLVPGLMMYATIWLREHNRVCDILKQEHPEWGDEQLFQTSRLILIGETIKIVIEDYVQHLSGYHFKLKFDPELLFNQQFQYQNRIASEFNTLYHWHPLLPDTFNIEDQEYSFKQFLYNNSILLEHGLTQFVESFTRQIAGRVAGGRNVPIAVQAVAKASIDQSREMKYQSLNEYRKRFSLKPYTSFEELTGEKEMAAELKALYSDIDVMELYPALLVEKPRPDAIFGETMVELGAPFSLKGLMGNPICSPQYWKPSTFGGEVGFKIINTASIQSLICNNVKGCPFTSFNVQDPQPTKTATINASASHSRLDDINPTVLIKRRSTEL
Nature of the data set: COX-2 assay: PGE2 release (RIA) from LPS-stimulated mouse peritoneal macrophages. It is filed as cell-based, mice. The conditions noted are these: LPS 1 mg/L 9 h, PGE2 by RIA. As to the method: Cell culture: Adherent macrophages were harvested from the peritoneal cells of male mice (C57BL-6J, Level 2, from Experiment Animal Center, Academy of Military Medical Science) 3 d after the injection (ip) of brewer thioglycollate medium (5 mL/100 g body weight). […] Cell viability was examined by trypan blue dye exclusion. All incubation procedures were performed with 5% CO2 in humidified air at 37° C.
COX-2 assay: Macrophages were incubated with test compound at different concentrations or solvent (Me2SO) for 1 h and were stimulated with LPS 1 mg/L for 9 h. The amount of PGE2 in supernatants was measured by RIA. The inhibitory ratio was calculated using the same Formula as in COX-1 assay section. Cs, Ct, Cc refer to PGE2 concentration in supernatants of LPS, test compound, and control groups, respectively.
Statistical analysis: Data were expressed as the mean±SD of more than three independent experiments. Dose-inhibitory effect curves were fit through “uphill dose response curves, variable slope” using Prism, GraphPad (version 3.00): [formula]

The test system of data set [1] is carrageenan-induced foot pad edema. Nature of the data set: Rat carrageenan-induced foot pad edema assay. In kind it is in vivo. The following applies: 10 mg/kg oral. On the procedure: Male Sprgue-Dawley rats (190-220 g ) were fasted with free access to water at least 16 h prior experiments. The rats were dosed orally with a 1 ml suspension of test compound in vehicle (0.5% methyl cellulose and 0.025% Tween-20) or with vehicle alone. One hour later a subplantar injection of 0.1 ml of 1% solution of carageenan in 0.9% strile saline was administered to the right hind foot pad. Paw volume was measured with a displacement plethysmometer 2, 3, and 4 h after carrageenan injection.
On the technique in general: Carrageenan injected into the paw causes an acute inflammation.

Take `COc1ccc(-c2[nH]c3ccc(Cl)cc3c2-c2ccc(S(C)(=O)=O)cc2)cc1` [Example 90, 2-(4-methoxyphenyl)-3-(4-methylsulfonylphenyl)-5-chloroindole]: the melting point lay within 246 to 248 °C. For the same compound, it took 2.81 nM to reach half-maximal inhibition on COX-2 (IC50). Also, in data set [1] (2 h after carrageenan), the edema (paw volume increase) is 44.2 ± 11.9% and the “inhibitory percentage of edema” value was determined as 38.1%. In data set [1] (3 h after carrageenan), the edema (paw volume increase) came to 46.5 ± 5.7% and the “inhibitory percentage of edema” value was determined as 52.4%. Further, in data set [1] (4 h after carrageenan), the edema (paw volume increase) was determined as 40.8 ± 5.3% and the “inhibitory percentage of edema” value was 49.6%.

The compound `CS(=O)(=O)c1ccc(-c2c(-c3ccccc3F)[nH]c3ccc(Cl)cc23)cc1` [Example 92, 2-(2-fluorophenyl)-3-(4-methylsulfonylphenyl)-5-chloroindole] yielded a melting point of 246 to 248 °C. Moreover, it took 1.76 nM to reach half-maximal inhibition at COX-2 (IC50). Further, in data set [1] (2 h after carrageenan), the edema (paw volume increase) is 31.3 ± 17% and the “inhibitory percentage of edema” value came out at 56.2%. Moreover, in data set [1] (3 h after carrageenan), the edema (paw volume increase) was determined as 44.6 ± 13.7% and the “inhibitory percentage of edema” value amounted to 54.3%. For the same compound, in data set [1] (4 h after carrageenan), the edema (paw volume increase) amounted to 35.4 ± 18.8% and the “inhibitory percentage of edema” value was determined as 56.1%.

The compound `CC(=O)Oc1ccccc1-c1[nH]c2ccc(Cl)cc2c1-c1ccc(S(C)(=O)=O)cc1` [Example 93, 2-(2-acetyloxyphenyl)-3-(4-methylsulfonylphenyl)-5-chloroindole] showed a melting point of 238 to 240 °C. Further, the IC50 at COX-2 worked out at 6 nM. For the same compound, in data set [1] (2 h after carrageenan), the edema (paw volume increase) is 49.5 ± 8.2% and the “inhibitory percentage of edema” value is reported as 30.7%. In addition, in data set [1] (3 h after carrageenan), the edema (paw volume increase) was found to be 54.4 ± 8.9% and the “inhibitory percentage of edema” value is 44.3%. In data set [1] (4 h after carrageenan), the edema (paw volume increase) amounted to 53.6 ± 11.4% and the “inhibitory percentage of edema” value turned out to be 33.5%.

For `CC(=O)Oc1ccc(-c2[nH]c3ccc(Cl)cc3c2-c2ccc(S(C)(=O)=O)cc2)cc1` [Example 94, 2-(4-acetyloxyphenyl)-3-(4-methylsulfonylphenyl)-5-chloroindole], the melting point lay within 248 to 250 °C. The compound further registered an IC50 against COX-2 of 7.16 nM. In addition, in data set [1] (2 h after carrageenan), the edema (paw volume increase) stood at 58.8 ± 11.4% and the “inhibitory percentage of edema” value was determined as 17.6%. Besides, in data set [1] (3 h after carrageenan), the edema (paw volume increase) is 62.1 ± 7.1% and the “inhibitory percentage of edema” value came to 36.3%. Further, in data set [1] (4 h after carrageenan), the edema (paw volume increase) came out at 56.4 ± 11.7% and the “inhibitory percentage of edema” value is listed as 30.0%.

On to `CS(=O)(=O)c1ccc(-c2c(-c3ccccc3)[nH]c3ccccc23)cc1` [Example 100, 2-phenyl-3-(4-methylsulfonylphenyl)indole], for which the melting point lay within 239 to 241 °C. The compound also registered an IC50 on COX-2 of 0.216 nM. In addition, in data set [1] (2 h after carrageenan), the edema (paw volume increase) was determined as 42.8 ± 15.1% and the “inhibitory percentage of edema” value was 40.1%. For the same compound, in data set [1] (3 h after carrageenan), the edema (paw volume increase) was 54.4 ± 7.9% and the “inhibitory percentage of edema” value amounted to 44.3%. Moreover, in data set [1] (4 h after carrageenan), the edema (paw volume increase) is 43.5 ± 8.9% and the “inhibitory percentage of edema” value turned out to be 46.1%.

`NS(=O)(=O)c1ccc(-c2c(-c3ccccc3)[nH]c3ccccc23)cc1` [Example 101, 2-phenyl-3-(4-aminosulfonylphenyl)indole] yielded a melting point of 223 to 225 °C. This compound registered a half-maximal inhibitory concentration (IC50) against COX-2 of 2.55 nM. The same compound had an edema (paw volume increase) in data set [1] (2 h after carrageenan) of 36.6 ± 8.9%. For the same compound, in data set [1] (3 h after carrageenan), the edema (paw volume increase) is 39.1 ± 15.4% and the “inhibitory percentage of edema” value stood at 36.1%. Besides, in data set [1] (4 h after carrageenan), the edema (paw volume increase) was 33.6 ± 16.5% and the “inhibitory percentage of edema” value is 44.2%.

As a reminder, the melting point is the temperature of the solid-liquid transition. The term IC50 denotes the point on the concentration scale where inhibition reaches its midpoint. High values mean weaker potency in that assay, low ones greater potency in that assay.
